The subject of data set [1] is pooled primary human hepatocyte suspensions. The data set is described as follows: Hepatic clearance assay (substrate depletion, LC-MS). Conditions: in µL/min/10^6 cells; for CLint for HTTK: CLint value carried into HTTK/IVIVE; for in vitro CLint exp assay / Unadj Clint: pooled primary human hepatocyte suspensions; for Unadj Clint: unadjusted hepatic intrinsic clearance, Table S4. On the procedure: The rate of hepatic clearance was determined as previously described for a set of PFAS [11]. Analysis was conducted across two laboratories at the Division of Translational Toxicology (DTT) at the National Institute of Environmental Health Sciences (NIEHS) and the Center for Computational Toxicology and Exposure at the USEPA. The PFAS analyzed in each lab can be found in the Supplementary Materials.
The hepatic clearance assay was performed at both the DTT and EPA laboratories as described below. The pooled human hepatocyte suspensions used in this work were purchased commercially and meet the ethical and scientific standards described in the Human Ethics Rule (40 CFR 26). The suspensions were prepared from hepatocytes obtained from de-identified donors by a commercial vendor.
PFAS stock solutions prepared in DMSO were added to prewarmed William’s E medium to make a 2X working stock solution (2 µM). […] The working stock solutions were then transferred to a 96-well polypropylene plate and placed in an incubator at 37 °C with 5% carbon dioxide prior to adding cells. Cryopreserved pooled primary human hepatocyte suspensions (50-donor pool, mixed gender; BioIVT; Westbury, NY, USA) were thawed and transferred to vials containing hepatocyte thawing medium. After centrifuging for 5–10 min at 100× g, thawing medium was removed, being careful not to disturb the cell pellet. The primary human hepatocytes were then resuspended in pre-warmed complete Williams E medium to achieve a cell density of ~1.0 × 10^6 viable cells/mL as determined by Trypan Blue exclusion. Cells were then added to the 96-well incubation plates containing PFAS to achieve a final density of ~0.5 × 10^6 viable cells/mL and a 1 μM assay concentration (Ctest), then placed in incubator on a shaker at 300 rpm. Triplicate samples were removed from the incubator at time points ranging from 0 to 240 min and quenched with a total crash in 2–3 volumes of ice-cold acetonitrile. Samples were spun at 4000× g for 20 min, and supernatants were transferred to new tubes and stored at <−70 °C until analysis. Media-only (no cell) and/or heat-inactivated hepatocytes were included as negative controls for each chemical to evaluate and estimate chemical loss due to nonmetabolic processes (e.g., hydrolysis). Phenacetin was included in all runs as an assay reference compound; EPA also included propranolol as an additional reference compound.
Assay samples were diluted in mobile phase and analyzed using a Thermo Vanquish UPLC system with a Thermo Hypersil Gold aQ C18 column (100 × 2.1 mm, 1.9 […], Thermo Fisher Scientific Inc.) coupled to a Q Exactive Plus mass spectrometer. Gradient elution was used in the chromatographic separations using water with 20 mM ammonium acetate (mobile phase A) and methanol (mobile phase B), with the following gradient program: 0.5–7 min, 30%–90% B; 7–8 min, 90% B; 8–9 min, 90%–30% B; and 9–10 min, 30% B. The first minute of each injection was diverted to waste to avoid introduction of excessive salts from incubation medium. Analysis was detected in negative ion mode. Samples were quantified against an external, matrix-matched calibration curve. Additional methodologic information is available in Table S2.
To perform SPE, a positive-pressure manifold was employed along with Oasis WAX µElution plates and Oasis HLB 30 mg plates (Waters, Milford, MA, USA) for PFAS and positive-control extraction, respectively. […] The sorbent was then washed with 1% formic acid and water. Samples were eluted in 2% ammonia in methanol for analysis. Similarly, HLB plates were conditioned with methanol and water before sample was loaded onto the sorbent. The wells were then washed with 5% methanol in water and water before elution in methanol. For samples not undergoing SPE, the supernatant of the crashed assay sample was diluted in mobile phase prior to analysis. The first 1.5 min of the run was diverted to waste to prevent salt contamination.

The nature of data set [2]: IVIVE: steady-state concentration (Css), generic HTTK model. Set-up: species or system human. The following applies: for Css (mg/L) / Css (uM): Assuming 1 mg/kg/day dose rate, BW 70 kg; for CLhep: QL 1500000 uL/min; for Fub: fub=fup/(B:P), Fub set to 1 if needed; for CLint: scaled to whole liver: HPGL 110 mill cells/g, Vl 1596 g. On the procedure: IVIVE was performed as previously described to calculate human steady-state concentrations (Css). Briefly, experimental plasma protein binding data presented elsewhere were transformed to fraction unbound in blood using blood-to-plasma partitioning values. Experimental Clint values generated here are used in conjunction with relevant liver scalars to scale up to estimate whole liver clearance. […] Once Css values were established, these were used with the PFAS-specific in vitro POD data to calculate the administered equivalent doses (AEDs) using reverse dosimetry. […] The fifth-percentile AC50 value was used to define the in vitro POD. All relevant inputs, scalars, and calculations are provided in Supplementary Information, as indicated in the results.

The test system of the next data set is plasma protein. Conditions: cited from earlier work; for Mean fu: fraction unbound in plasma, input for IVIVE calculations.

For the molecule `CCNS(=O)(=O)C(F)(F)C(F)(F)C(F)(F)C(F)(F)C(F)(F)C(F)(F)C(F)(F)C(F)(F)F`, in data set [1], the “CLint for HTTK” value came to 8.96 and the “in vitro CLint exp assay” value is 8.96. Moreover, in data set [2], the “Css (mg/L)” value came to 0.58 mg/L, the “Css (uM)” value stood at 1.10 µM, the “CLhep” value is given as 4.700 L/h and the Fub was determined as 0.05255. The “CLint” value in data set [2] amounted to 1573018 µL/min. Also, in the data set on plasma protein, the Mean fu is 0.0289.

As for `CNS(=O)(=O)C(F)(F)C(F)(F)C(F)(F)C(F)(F)C(F)(F)C(F)(F)C(F)(F)C(F)(F)F`, in data set [1], the “CLint for HTTK” value is 23.23 and the “in vitro CLint exp assay” value was 23.23. In data set [2], the “Css (mg/L)” value was 0.58 mg/L, the “Css (uM)” value amounted to 1.13 µM, the “CLhep” value is 4.921 L/h and the Fub was 0.02127. In addition, the “CLint” value in data set [2] came to 4078259 µL/min. The Mean fu with plasma protein is given as 0.0117.

As for `O=S(=O)(Cl)C(F)(F)C(F)(F)C(F)(F)C(F)(F)C(F)(F)C(F)(F)C(F)(F)C(F)(F)F`, in data set [1], the “CLint for HTTK” value is recorded as 0 and the “in vitro CLint exp assay” value is given as 0.00. Further, in data set [2], the “Css (mg/L)” value was determined as 41.78 mg/L, the “Css (uM)” value worked out at 80.68 µM, the “CLhep” value was 0.000 L/h and the Fub is 0.0105. Moreover, the “CLint” value in data set [2] stood at 0 µL/min. In addition, in the data set on plasma protein, the Mean fu is on record as 0.0109.

In the case of `O=C(O)C(F)(F)C(F)(F)C(F)(F)OC(F)(C(F)(F)F)C(F)(F)F`, in data set [1], the “CLint for HTTK” value was 5.78 and the “in vitro CLint exp assay” value was found to be 5.78. Further, in data set [2], the “Css (mg/L)” value was determined as 11.42 mg/L, the “Css (uM)” value is 30.05 µM, the “CLhep” value is reported as 0.232 L/h and the Fub turned out to be 0.003818. Besides, in data set [2], the “CLint” value was determined as 1014737 µL/min. The Mean fu with plasma protein is on record as 0.0021.

For `O=C(O)C(F)(F)C(F)(F)C(F)(F)OC(F)(F)F`, in data set [1], the “CLint for HTTK” value is 1.5 and the “in vitro CLint exp assay” value was 1.5. Besides, in data set [2], the “Css (mg/L)” value is listed as 6.16 mg/L, the “Css (uM)” value was determined as 22.00 µM, the “CLhep” value was found to be 0.335 L/h and the Fub was found to be 0.02127. Besides, the “CLint” value in data set [2] was determined as 263340 µL/min. In the data set on plasma protein, the Mean fu is 0.0117.

As to `C[N+](C)(C)CCCNS(=O)(=O)C(F)(F)C(F)(F)C(F)(F)C(F)(F)C(F)(F)C(F)(F)C(F)(F)C(F)(F)F.[I-]`, in data set [1], the “CLint for HTTK” value came to 0, the “in vitro CLint exp assay” value was found to be 0 and the “Unadj Clint” value is recorded as 4.28. Also, in data set [2], the “Css (mg/L)” value worked out at 19.15 mg/L, the “Css (uM)” value worked out at 31.97 µM, the “CLhep” value is 0.000 L/h and the Fub was 0.02291. For the same molecule, in data set [2], the “CLint” value is reported as 0 µL/min. In the data set on plasma protein, the Mean fu was 0.0126.

In the case of `O=S(=O)([O-])C(F)(F)C(F)(F)C(F)(F)C(F)(F)C(F)(F)C(F)(F)F.[K+]`, in data set [1], the “CLint for HTTK” value stood at 0 and the “in vitro CLint exp assay” value is reported as 0. In data set [2], the “Css (mg/L)” value worked out at 241.34 mg/L, the “Css (uM)” value stood at 603.44 µM, the “CLhep” value amounted to 0.000 L/h and the Fub was 0.001818. Further, in data set [2], the “CLint” value is reported as 0 µL/min. Further, the Mean fu in the data set with plasma protein was 0.001.

For `O=S(=O)([O-])C(F)(F)C(F)(F)C(F)(F)C(F)(F)C(F)(F)C(F)(F)C(F)(F)C(F)(F)F.[K+]`, in data set [1], the “CLint for HTTK” value amounted to 0 and the “in vitro CLint exp assay” value is recorded as 2.96. In data set [2], the “Css (mg/L)” value was 60.34 mg/L, the “Css (uM)” value stood at 120.69 µM, the “CLhep” value amounted to 0.000 L/h and the Fub was 0.007273. For the same molecule, in data set [2], the “CLint” value was 0 µL/min. Further, the Mean fu with plasma protein is reported as 0.004.

Take `O=S(=O)(OCC(F)(F)F)C(F)(F)C(F)(F)C(F)(F)C(F)(F)F` [2,2,2-Trifluoroethyl perfluorobutanesulfonate]: in data set [1], the “CLint for HTTK” value is given as 0, the “in vitro CLint exp assay” value is given as 0.00 and the “Unadj Clint” value was found to be 2.84. In addition, in data set [2], the “Css (mg/L)” value was found to be 65.09 mg/L, the “Css (uM)” value stood at 170.41 µM, the “CLhep” value turned out to be 0.000 L/h and the Fub came out at 0.006742. Moreover, the “CLint” value in data set [2] came to 0 µL/min. Besides, the Mean fu in the data set with plasma protein was 0.0039.

Turning to `O=C(O)C(F)(F)C(F)(F)C(F)F` [4H-perfluorobutanoic acid (4H-PFBA)], in data set [1], the “CLint for HTTK” value turned out to be 0 and the “in vitro CLint exp assay” value amounted to 0. In addition, in data set [2], the “Css (mg/L)” value stood at 1.41 mg/L, the “Css (uM)” value came out at 7.18 µM, the “CLhep” value came out at 0.000 L/h and the Fub stood at 0.3116. Besides, the “CLint” value in data set [2] turned out to be 0 µL/min. Besides, the Mean fu in the data set on plasma protein is listed as 0.1714.

On to `O=C(O)C(F)(F)C(F)(F)C(F)(F)C(F)(F)C(F)(F)C(F)(F)C(F)F` [8H-Perfluorooctanoic acid (8H-PFOA)], for which, in data set [1], the “CLint for HTTK” value came out at 0 and the “in vitro CLint exp assay” value is recorded as 0. In data set [2], the “Css (mg/L)” value is 114.93 mg/L, the “Css (uM)” value came to 290.23 µM, the “CLhep” value is on record as 0.000 L/h and the Fub is reported as 0.003818. Moreover, the “CLint” value in data set [2] amounted to 0 µL/min. In the data set with plasma protein, the Mean fu is reported as 0.0021.

Turning to `N.O=C(O)C(F)(F)C(F)(F)C(F)(F)C(F)(F)C(F)(F)C(F)(F)C(F)(F)F` [Ammonium perfluorooctanoate (NH4PFOA)], in data set [1], the “CLint for HTTK” value is given as 2.06 and the “in vitro CLint exp assay” value was determined as 2.06. In addition, in data set [2], the “Css (mg/L)” value amounted to 81.36 mg/L, the “Css (uM)” value was 196.53 µM, the “CLhep” value was 0.028 L/h and the Fub was 0.001273. In data set [2], the “CLint” value was 361654 µL/min. Also, in the data set with plasma protein, the Mean fu is recorded as 0.0007.

Turning to `O=C(O)C(F)(F)C(F)(F)C(F)(F)C(F)(F)F` [PFPeA, Perfluoropentanoic acid], in data set [1], the “Unadj Clint” value turned out to be 2.13. Moreover, the Css in data set [2] (human steady-state concentration, 1 mg/kg/day exposure rate, loss of parent compound only) amounted to 20.78 µM. Also, in the data set with plasma protein (human plasma), the “fup (fraction unbound in plasma)” value was 0.0440.

In the case of `O=S(=O)(O)C(F)(F)C(F)(F)C(F)(F)C(F)(F)C(F)(F)C(F)(F)C(F)(F)F` [Perfluoroheptanesulfonic acid (PFHpS)], in data set [1], the “CLint for HTTK” value is listed as 0 and the “in vitro CLint exp assay” value was 0. Also, in data set [2], the “Css (mg/L)” value stood at 402.24 mg/L, the “Css (uM)” value was determined as 893.98 µM, the “CLhep” value was determined as 0.000 L/h and the Fub turned out to be 0.001091. Further, the “CLint” value in data set [2] came to 0 µL/min. In the data set on plasma protein, the Mean fu is listed as 0.0006.

The values above are taken from article PMC11435625, “In Vitro Hepatic Clearance Evaluations of Per- and Polyfluoroalkyl Substances (PFAS) across Multiple Structural Categories” (Toxics, 2024).
